Results published in PubChem BioAssay AID2060612 (Molecular Pharmacology Branch, DTP, NCI, 2025).

Tested on: 565232-114-T-J1-PDC complex spheroid viability
Test: Anticancer human tumor 565232-114-T-J1-PDC patient-derived bladder carcinoma cell line growth inhibition [CLK]
Conditions: for IC50: curve of first compound; for viability, T/C: stronger effect = lower value; active = viability on the fitted dose curve at most 10% of control; inactive = the rest
Method in brief: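 Patient-derived tumor cells grown as complex spheroids with HUVEC endothelial cells and mesenchymal stem cells, treated with drug combinations. Concentrations descend in half-log steps from near clinical Cmax, or from 10 microM if Cmax unknown.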

[1] = second compound 0.0316 µM, first compound 0.0316 µM
[2] = second compound 0.0316 µM, first compound 0.1 µM
[3] = second compound 0.0316 µM, first compound 0.316 µM
[4] = second compound 0.0316 µM, first compound 1 µM
[5] = second compound 0.1 µM, first compound 0.0316 µM
[6] = second compound 0.1 µM, first compound 0.1 µM
[7] = second compound 0.1 µM, first compound 0.316 µM
[8] = second compound 0.1 µM, first compound 1 µM
[9] = second compound 0.316 µM, first compound 0.0316 µM
[10] = second compound 0.316 µM, first compound 0.1 µM
[11] = second compound 0.316 µM, first compound 0.316 µM
[12] = second compound 0.316 µM, first compound 1 µM
[13] = second compound 1 µM, first compound 0.0316 µM
[14] = second compound 1 µM, first compound 0.1 µM
[15] = second compound 1 µM, first compound 0.316 µM
[16] = second compound 1 µM, first compound 1 µM
[17] = second compound 3.16 µM, first compound 0.0316 µM
[18] = second compound 3.16 µM, first compound 0.1 µM
[19] = second compound 3.16 µM, first compound 0.316 µM
[20] = second compound 3.16 µM, first compound 1 µM
[21] = second compound 10 µM, first compound 0.0316 µM
[22] = second compound 10 µM, first compound 0.1 µM
[23] = second compound 10 µM, first compound 0.316 µM
[24] = second compound 10 µM, first compound 1 µM
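Note: spheroids exposed to compounds for 7 days before readout.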
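Throughout, for viability, T/C: 100% = DMSO vehicle wells with luminescence normalized to vehicle control.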

CC(=O)O[C@H]1C(=O)[C@@]2(C)[C@H]([C@H](OC(=O)c3ccccc3)[C@]3(O)C[C@H](OC(=O)[C@H](O)[C@@H](NC(=O)c4ccccc4)c4ccccc4)C(C)=C1C3(C)C)[C@]1(OC(C)=O)CO[C@@H]1C[C@@H]2O + CNC(=O)c1ccc(Nc2nc(OC3CCCC3)c3c(-c4ccc5nc(C)oc5c4)c[nH]c3n2)c(OC)c1
inactive: viability, T/C [1] 24.3% | viability, T/C [2] 9.42% | viability, T/C [3] 9.43% | viability, T/C [4] 10% | viability, T/C (second compound 0.0316 µM, first compound 3.16 µM) 13.3% | viability, T/C (second compound 0.0316 µM, first compound 10 µM) 16.3% | viability, T/C [5] 37.8% | viability, T/C [6] 32.8% | viability, T/C [7] 35.9% | viability, T/C [8] 29.6% | viability, T/C (second compound 0.1 µM, first compound 3.16 µM) 43.8% | viability, T/C (second compound 0.1 µM, first compound 10 µM) 42.9% | viability, T/C [9] 31.6% | viability, T/C [10] 38% | viability, T/C [11] 38.3% | viability, T/C [12] 46.9% | viability, T/C (second compound 0.316 µM, first compound 3.16 µM) 51% | viability, T/C (second compound 0.316 µM, first compound 10 µM) 46.5% | viability, T/C [13] 22.9% | viability, T/C [14] 30.6% | viability, T/C [15] 30.7% | viability, T/C [16] 41.2% | viability, T/C (second compound 1 µM, first compound 3.16 µM) 41.4% | viability, T/C (second compound 1 µM, first compound 10 µM) 36.1% | viability, T/C [17] 24.4% | viability, T/C [18] 25.5% | viability, T/C [19] 25.1% | viability, T/C [20] 29.9% | viability, T/C (second compound 3.16 µM, first compound 3.16 µM) 26.6% | viability, T/C (second compound 3.16 µM, first compound 10 µM) 29% | viability, T/C [21] 20.4% | viability, T/C [22] 22.3% | viability, T/C [23] 29.6% | viability, T/C [24] 28.1% | viability, T/C (second compound 10 µM, first compound 3.16 µM) 30.5% | viability, T/C (second compound 10 µM, first compound 10 µM) 27.7%
< 31.6 nM: IC50 (second compound 0.0316 µM) | IC50 (second compound 0.1 µM) | IC50 (second compound 0.316 µM) | IC50 (second compound 1 µM) | IC50 (second compound 3.16 µM) | IC50 (second compound 10 µM)

CCc1c2c(nc3ccc(O)cc13)-c1cc3c(c(=O)n1C2)COC(=O)[C@]3(O)CC + CNC(=O)c1ccc(Nc2nc(OC3CCCC3)c3c(-c4ccc5nc(C)oc5c4)c[nH]c3n2)c(OC)c1
active: viability, T/C [2] 5.26% | viability, T/C [3] 3.13% | viability, T/C [4] 1.53% | viability, T/C [6] 3.99% | viability, T/C [7] 2.1% | viability, T/C [8] 1.61% | viability, T/C [9] 8.99% | viability, T/C [10] 3.91% | viability, T/C [11] 1.28% | viability, T/C [12] 0.35% | viability, T/C [13] 4.81% | viability, T/C [14] 4.56% | viability, T/C [15] 1.55% | viability, T/C [16] 0.71% | viability, T/C (second compound 3.16 µM, first compound 0.01 µM) 9.15% | viability, T/C [17] 5.68% | viability, T/C [18] 2.4% | viability, T/C [19] 1% | viability, T/C [20] 0.27% | viability, T/C [21] 6.78% | viability, T/C [22] 3.12% | viability, T/C [23] 1.32% | viability, T/C [24] 2.51%
8.14 nM: IC50 (second compound 0.0316 µM)
< 3.16 nM: IC50 (second compound 0.1 µM) | IC50 (second compound 0.316 µM) | IC50 (second compound 1 µM) | IC50 (second compound 3.16 µM) | IC50 (second compound 10 µM)
inactive: viability, T/C (second compound 0.0316 µM, first compound 0.00316 µM) 103% | viability, T/C (second compound 0.0316 µM, first compound 0.01 µM) 37.1% | viability, T/C [1] 16.6% | viability, T/C (second compound 0.1 µM, first compound 0.00316 µM) 33.4% | viability, T/C (second compound 0.1 µM, first compound 0.01 µM) 17.9% | viability, T/C [5] 12.2% | viability, T/C (second compound 0.316 µM, first compound 0.00316 µM) 18.9% | viability, T/C (second compound 0.316 µM, first compound 0.01 µM) 15.3% | viability, T/C (second compound 1 µM, first compound 0.00316 µM) 14.7% | viability, T/C (second compound 1 µM, first compound 0.01 µM) 13.8% | viability, T/C (second compound 3.16 µM, first compound 0.00316 µM) 15.7% | viability, T/C (second compound 10 µM, first compound 0.00316 µM) 17.3% | viability, T/C (second compound 10 µM, first compound 0.01 µM) 12.9%
